Test results as given in patent US20220313629A1, “TRANSIENT POTENTIAL MELASTATIN 8 (TRPM8) ANTAGONISTS AND RELATED METHODS” (MARSHALL UNIVERSITY RESEARCH CORPORATION, priority 2019, published 2022).
Where “and” joins values, the source holds several entries; their conditions need not be identical. Equal entries are not always repeated. Where two headings read alike, the source gives them in different places.

Legend:
human TRPA1 [1] = target: T1, human TRPA1 (Homo sapiens, UniProt O75762); assay: TRPA1 agonist and antagonist Ca2+ flux assay (FLIPR, Fluo-8) in HEK293 cells stably expressing human TRPA1; type: cell-based; conditions: for % Activation Mean ± SEM (n = 5), TRPA1 antagonist data (Percentage Inhibition Normalized to EC80 Control): vs EC80 of AITC
human TRPA1 [2] = target: T1, human TRPA1; conditions: vs. the effect of 80 μM AITC; read-out: IC50 at TRPA1 reported by Klionsky and colleagues; cited from earlier work
TRPM8 [3] = target: T2, TRPM8 (Homo sapiens, UniProt Q7Z2W7); conditions: literature value; read-out: IC50 in whole-cell patch-clamp assay (reported); cited from earlier work
Target sequence in this assay (Q7Z2W7 whole entry): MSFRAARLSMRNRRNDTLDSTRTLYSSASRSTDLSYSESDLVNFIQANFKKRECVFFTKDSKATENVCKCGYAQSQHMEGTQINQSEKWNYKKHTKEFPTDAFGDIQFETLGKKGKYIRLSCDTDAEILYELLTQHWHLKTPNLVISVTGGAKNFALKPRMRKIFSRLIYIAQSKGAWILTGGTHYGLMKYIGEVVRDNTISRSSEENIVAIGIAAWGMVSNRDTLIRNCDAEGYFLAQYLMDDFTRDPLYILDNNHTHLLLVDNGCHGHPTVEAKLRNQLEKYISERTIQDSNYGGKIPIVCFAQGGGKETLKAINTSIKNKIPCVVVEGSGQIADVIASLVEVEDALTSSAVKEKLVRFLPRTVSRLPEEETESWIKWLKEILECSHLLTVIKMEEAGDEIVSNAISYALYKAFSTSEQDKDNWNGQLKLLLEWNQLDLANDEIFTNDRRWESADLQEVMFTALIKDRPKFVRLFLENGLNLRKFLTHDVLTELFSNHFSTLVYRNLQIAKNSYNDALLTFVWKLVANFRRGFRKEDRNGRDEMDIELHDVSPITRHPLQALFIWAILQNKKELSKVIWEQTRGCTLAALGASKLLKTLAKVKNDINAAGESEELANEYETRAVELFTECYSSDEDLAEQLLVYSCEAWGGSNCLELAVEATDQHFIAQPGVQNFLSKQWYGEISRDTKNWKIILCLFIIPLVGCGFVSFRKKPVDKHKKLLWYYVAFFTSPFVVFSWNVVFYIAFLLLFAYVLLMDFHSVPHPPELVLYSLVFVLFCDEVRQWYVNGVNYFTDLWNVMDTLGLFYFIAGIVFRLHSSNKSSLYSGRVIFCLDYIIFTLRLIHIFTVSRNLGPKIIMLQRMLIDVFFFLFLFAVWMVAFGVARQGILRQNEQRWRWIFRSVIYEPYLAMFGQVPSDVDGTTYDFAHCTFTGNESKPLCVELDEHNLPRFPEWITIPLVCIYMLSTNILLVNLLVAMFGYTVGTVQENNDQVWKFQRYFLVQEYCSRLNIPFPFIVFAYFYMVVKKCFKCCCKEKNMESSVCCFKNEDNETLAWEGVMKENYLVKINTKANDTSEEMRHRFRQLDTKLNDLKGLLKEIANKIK

TRPM8 [4] = target: T2, TRPM8; conditions: cited from earlier work
Target sequence in this assay (Q7Z2W7 whole entry): as above

rat and human TRPM8 = conditions: literature; read-out: IC50 values against menthol, icilin and cold activation at rat and human TRPM8; cited from earlier work
TRPM8 [5] = target: T2, TRPM8; assay: TRPM8 antagonist activity by Fura-2 Ca2+ imaging in HEK-293 cells stably expressing human TRPM8; type: cell-based; conditions: inhibition of icilin (500 nM)-evoked Ca2+ entry; HEK-293 cells stably expressing hTRPM8; mean ± SEM, three independent experiments; read-out: Functional Activity hTRPM8 potency IC50 ± SEM
Target sequence in this assay (Q7Z2W7 whole entry): as above

TRPM8 [6] = target: T2, TRPM8; conditions: different cell type (CHO vs HEK) or species (human versus mouse); read-out: previously-reported EC50 values; cited from earlier work
Target sequence in this assay (Q7Z2W7 whole entry, species assumed): as the sequence (Q7Z2W7 whole entry) above

TRPM8 [7] = target: T2, TRPM8; assay: TRPM8 agonist (intrinsic) activity by Fura-2 Ca2+ imaging in HEK-293 cells stably expressing human TRPM8; type: cell-based; conditions: HEK-293 cells stably expressing hTRPM8; read-out: EC50 (agonist-evoked Ca2+ influx at hTRPM8)
Target sequence in this assay (Q7Z2W7 whole entry): as above

[8] = Stability in liver microsomes; type: in vitro ADME; conditions: mouse liver microsomes; CLint = k/P
Method: Stability in liver microsomes. Male CD-1 mouse liver microsomes (Lot#1710069) were purchased from XenoTech. The reaction mixture, minus NADPH, was prepared as described below. Compound 14 was added into the reaction mixture at a final concentration of 1 μM. The control compound, testosterone, was run simultaneously with Compound 14 in a separate reaction. An aliquot of the reaction mixture (without cofactor) was equilibrated in a shaking water bath at 37° C. for 3 minutes. The reaction was initiated by the addition of the cofactor, and the mixture was incubated in a shaking water bath at 37° C. Aliquots (100 μL) were withdrawn at 0, 10, 20, 30, and 60 minutes. Compound 14 and testosterone samples were immediately combined with 400 μL of ice-cold 50/50 acetonitrile (ACN)/H2O containing 0.1% formic acid and internal standard to terminate the reaction. The samples were then mixed and centrifuged to precipitate proteins. All samples were assayed by LC-MS/MS using electrospray ionization. […] are compared to the PARR at time 0 to determine the percent remaining at each time point. Half-lives and intrinsic clearance were calculated using GraphPad software, fitting to a single-phase exponential decay equation.
In vitro metabolic stability. Compound 14 was evaluated for metabolic stability in mouse liver microsomes by Absorption Systems (Exton, Pa.), by determining the percent remaining at 0, 10, 20, 30 and 60 minutes when incubated with mouse liver microsomes in the presence of NADPH. The half-life (t1/2) and in vitro intrinsic clearance (CLint) of Compound 14 was calculated, in addition to the control (testosterone).

T1 sequence (O75762 whole entry): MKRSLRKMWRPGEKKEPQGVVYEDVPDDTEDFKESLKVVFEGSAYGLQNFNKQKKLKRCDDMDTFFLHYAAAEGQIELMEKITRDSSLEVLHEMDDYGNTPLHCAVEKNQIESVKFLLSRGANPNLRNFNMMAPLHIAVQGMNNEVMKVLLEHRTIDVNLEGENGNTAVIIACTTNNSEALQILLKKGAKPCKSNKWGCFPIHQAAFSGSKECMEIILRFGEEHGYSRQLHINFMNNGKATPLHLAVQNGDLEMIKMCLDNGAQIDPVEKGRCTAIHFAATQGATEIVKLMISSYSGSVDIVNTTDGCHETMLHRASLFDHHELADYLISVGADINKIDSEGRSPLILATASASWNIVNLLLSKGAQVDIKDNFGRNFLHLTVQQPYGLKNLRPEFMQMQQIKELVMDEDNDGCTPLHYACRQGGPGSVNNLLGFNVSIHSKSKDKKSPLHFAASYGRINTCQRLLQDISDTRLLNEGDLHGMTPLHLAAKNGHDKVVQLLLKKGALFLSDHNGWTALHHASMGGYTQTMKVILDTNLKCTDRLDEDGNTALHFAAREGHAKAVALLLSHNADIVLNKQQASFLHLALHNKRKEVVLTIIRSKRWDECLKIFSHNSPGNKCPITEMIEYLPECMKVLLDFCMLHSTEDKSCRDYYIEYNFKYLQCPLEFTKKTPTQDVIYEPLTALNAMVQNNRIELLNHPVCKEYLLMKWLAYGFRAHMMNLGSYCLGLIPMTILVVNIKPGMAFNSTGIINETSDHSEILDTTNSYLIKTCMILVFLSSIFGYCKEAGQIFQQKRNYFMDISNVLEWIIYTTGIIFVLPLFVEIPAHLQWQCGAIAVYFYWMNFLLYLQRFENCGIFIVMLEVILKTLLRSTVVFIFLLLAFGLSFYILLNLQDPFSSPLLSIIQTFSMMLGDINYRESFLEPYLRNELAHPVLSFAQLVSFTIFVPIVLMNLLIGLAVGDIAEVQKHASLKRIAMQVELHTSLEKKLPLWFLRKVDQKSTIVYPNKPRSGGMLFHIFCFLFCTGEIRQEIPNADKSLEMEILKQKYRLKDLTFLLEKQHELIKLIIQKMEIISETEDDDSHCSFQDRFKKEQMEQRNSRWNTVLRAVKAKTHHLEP

N.N.N.N.N.N.N.N.N.N.N.N.N.N.[Cl-].[Cl-].[Cl-].[Cl-].[Cl-].[Cl-].[O-2].[O-2].[Ru+3].[Ru+3].[Ru+4] [Ruthenium Red, reference compound]
% Activation Mean ± SEM (n = 5), TRPA1 antagonist data (Percentage Inhibition Normalized to EC80 Control) (human TRPA1 [1]; 3 nM): −6.0 ± 1.2%
% Activation Mean ± SEM (n = 5), TRPA1 antagonist data (Percentage Inhibition Normalized to EC80 Control) (human TRPA1 [1]; 10 nM): 1.9 ± 2.4%
% Activation Mean ± SEM (n = 5), TRPA1 antagonist data (Percentage Inhibition Normalized to EC80 Control) (human TRPA1 [1]; 30 nM): 5.8 ± 4.6%
% Activation Mean ± SEM (n = 5), TRPA1 antagonist data (Percentage Inhibition Normalized to EC80 Control) (human TRPA1 [1]; 100 nM): 15.7 ± 9.8%
% Activation Mean ± SEM (n = 5), TRPA1 antagonist data (Percentage Inhibition Normalized to EC80 Control) (human TRPA1 [1]; 300 nM): 91.1 ± 2.9%
% Activation Mean ± SEM (n = 5), TRPA1 antagonist data (Percentage Inhibition Normalized to EC80 Control) (human TRPA1 [1]; 1,000 nM): 100.9 ± 0.1%
% Activation Mean ± SEM (n = 5), TRPA1 antagonist data (Percentage Inhibition Normalized to EC80 Control) (human TRPA1 [1]; 3,000 nM): 100.9 ± 0.7%
% Activation Mean ± SEM (n = 5), TRPA1 antagonist data (Percentage Inhibition Normalized to EC80 Control) (human TRPA1 [1]; 10,000 nM): 100.8 ± 0.3%
IC50 (human TRPA1 [1]; AITC 10 μM, read-out: IC50, blockade of AITC-activated hTRPA1 responses): 162 ± 33 nM
IC50 (human TRPA1 [2]): 29 ± 6 nM

COc1cc(CN(CCN)C(=O)OC(C)c2ccccc2)ccc1OCc1ccccc1 (stereo not drawn) [PBMC]
IC50 (TRPM8 [3]): 0.4 to 0.6 nM

C[C@H](c1ccc(F)cc1)N(Cc1cccc(C(=O)O)c1)C(=O)c1cnc2ccccc2c1 [PF-05105679]
IC50 (TRPM8 [4]; literature, read-out: IC50, inhibition of WS-12-mediated activation at human TRPM8): 181 ± 7.21 nM
IC50 (TRPM8 [4]; literature, read-out: IC50, inhibition of voltage-mediated activation at human TRPM8): 103 ± 29.4 nM
IC50 (TRPM8 [4]; literature, read-out: hTRPM8 IC50 (reported Ca2+ flux activity)): 181 nM

C[C@H](NC(=O)N1CCc2cccnc2[C@H]1c1ccc(C(F)(F)F)cc1)C(F)(F)F [AMG2850]
IC50 (rat and human TRPM8): 7 to 156 nM

O=C(O)c1ccc(S(=O)(=O)N(Cc2ccc(OC(F)(F)F)cc2)c2ncc(C(F)(F)F)cc2Cl)cc1 [RQ-00203078, reference compound]
IC50 (TRPM8 [4]; HEK cells expressing hTRPM8, read-out: IC50 previously reported against 30 μM menthol-evoked Ca2+ influx): ~8 nM
reported potency at hTRPM8 (TRPM8 [4]; literature): < 10 nM
IC50 (TRPM8 [5]): 2.96 nM and 3 nM

O=C1NC(c2cccc([N+](=O)[O-])c2)=CCN1c1ccccc1O [icilin, 3-(2-hydroxyphenyl)-6-(3-nitrophenyl)-3,4-dihydropyrimidin-2(1H)-one]
EC50 (TRPM8 [6]): 120 to 200 nM
EC50 (TRPM8 [7]): ~70 nM and 74 nM

C[C@]12CC[C@H]3[C@@H](CCC4=CC(=O)CC[C@@]43C)[C@@H]1CC[C@@H]2O [Testosterone, reference compound]
CLint (mL/min/mg protein) [8]: 0.372 mL/min/mg protein
